Measured values: paper PMC11882969 (Nature Communications, 2025)
Values joined by “and” are separate entries in the source; they are usually repeats but may differ in a detail not shown here. Equal values may be shown once. Marks after values point to notes of the source that are not given here.

What was measured:
[1] = Dynamic light scattering, colloidal aggregation; type: physicochemical; details: Log[compound, replicates, sheet FigS2b
Method: Samples were prepared as 8-point half-log dilutions in filtered 50 mM KPi buffer, pH 7.0 with final DMSO concentration at 1% (v/v). Colloidal particle formation was measured using DynaPro Plate Reader II (Wyatt Technologies). All compounds were screened in triplicate.

Malate dehydrogenase = assay: Enzyme inhibition counter-screen, MDH; type: biochemical; details: Log[7019], sheet FigS2d
Method: Enzyme inhibition assays to test for colloidal inhibition were performed at room temperature using CLARIOstar Plate Reader (BMG Labtech). Samples were prepared in 50 mM KPi buffer, pH 7.0 with final DMSO concentration at 1% (v/v). Compounds were incubated with 2 nM AmpC β-lactamase (AmpC) or Malate dehydrogenase (MDH) for 5 min. AmpC reactions were initiated by the addition of 50 μM CENTA chromogenic substrate (219475, Calbiochem). […] MDH reactions were initiated by the addition of 200 μM nicotinamide adenine dinucleotide (NADH) (54839, Sigma Aldrich) and 200 μM oxaloacetic acid (324427, Sigma Aldrich). The change in absorbance was monitored at 340 nm for 60 sec. Initial rates were divided by the DMSO control rate to determine % enzyme activity. Each compound was screened at 100μM in triplicate for three independent experiments, if enzyme inhibition greater than 30% was observed, 8-point half-log concentrations were performed in triplicate for three independent experiments. Data was analyzed using GraphPad Prism 9.1.

hCB1 = hCB1 (Homo sapiens, UniProt P21554); assay: Tango β-arrestin-2 recruitment, HTLA cells, CB1R; type: cell-based; set-up: expressed in transfected cells; host or cells: HTLA cells (gift of R. Axel), transient transfection
hCB1, sequence (P21554 whole entry): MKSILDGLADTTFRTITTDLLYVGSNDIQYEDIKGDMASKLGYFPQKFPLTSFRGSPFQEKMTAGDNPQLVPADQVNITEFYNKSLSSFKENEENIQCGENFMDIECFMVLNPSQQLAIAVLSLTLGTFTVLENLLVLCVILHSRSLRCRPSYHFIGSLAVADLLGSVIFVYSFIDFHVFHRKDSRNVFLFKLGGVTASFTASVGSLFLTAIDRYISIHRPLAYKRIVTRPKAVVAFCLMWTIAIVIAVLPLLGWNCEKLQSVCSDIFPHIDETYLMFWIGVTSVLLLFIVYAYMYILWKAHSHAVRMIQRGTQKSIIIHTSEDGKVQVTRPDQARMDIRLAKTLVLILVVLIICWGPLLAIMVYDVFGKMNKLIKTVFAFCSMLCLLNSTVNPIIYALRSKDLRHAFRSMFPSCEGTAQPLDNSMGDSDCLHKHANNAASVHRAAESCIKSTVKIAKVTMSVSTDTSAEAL

hCB2 [2] = molecular target: T1, hCB2 (Homo sapiens, UniProt P34972); assay: TRUPATH BRET2 GoA dissociation, HEK293T; type: cell-based; set-up: expressed in transfected cells; host or cells: HEK293T cells (ATCC: CRL-3216), transient co-transfection; details: for functional response, concentration-response point (FigS7e, normalized): Log[drug], replicate columns
T1 sequence (P34972 whole entry): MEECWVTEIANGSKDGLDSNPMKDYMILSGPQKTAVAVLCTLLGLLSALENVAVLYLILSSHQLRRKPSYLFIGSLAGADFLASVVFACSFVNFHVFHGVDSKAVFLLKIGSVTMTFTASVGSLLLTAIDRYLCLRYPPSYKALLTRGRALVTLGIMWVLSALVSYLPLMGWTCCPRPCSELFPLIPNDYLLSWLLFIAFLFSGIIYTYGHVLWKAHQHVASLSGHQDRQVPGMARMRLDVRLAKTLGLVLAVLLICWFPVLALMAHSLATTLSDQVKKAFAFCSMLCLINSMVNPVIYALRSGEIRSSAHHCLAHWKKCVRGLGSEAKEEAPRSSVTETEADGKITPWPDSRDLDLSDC

hCB2 [3] = molecular target: T1, hCB2; assay: Tango β-arrestin-2 recruitment, HTLA cells, CB2R; type: cell-based; set-up: expressed in transfected cells; host or cells: HEK293 cells stably expressing human CB2R (Laboratory of Ken Mackie); details: hCB2
Method: The Tango β-arrestin-2 recruitment assays were performed as described[83]. In brief, HTLA cells (a gift from the laboratory of R. Axel) were transiently transfected with human CB1R or CB2R Tango DNA construct overnight in DMEM supplemented with 10 % FBS, 100 µg ml−1 streptomycin and 100 U ml−1 penicillin. The transfected cells were then plated into poly-L-lysine-coated 384-well white clear-bottom cell culture plates in DMEM containing 1% dialysed FBS at a density of 10,000–15,000 cells per well. After incubation for 6 h, the plates were added with drug solutions prepared in DMEM containing 1% dialysed FBS for overnight incubation. On the day of assay, medium and drug solutions were removed and 20 µl per well of BrightGlo reagent (Promega) was added. The plates were further incubated for 20 min at room temperature and counted using the Wallac TriLux Microbeta counter (PerkinElmer). The results were analysed using GraphPad Prism 9. Each experiment was performed in triplicate and functional IC50 values were determined from the mean of three independent experiments.

Cc1nc(CC2CC2)oc1-c1nc(Cc2cc3c(cc2Br)OCO3)no1 [‘7019]
DLS scattering intensity ([1]; uM] 0): 2130000 and 1970000 and 1380000 | DLS scattering intensity ([1]; uM] 1): 1540000 and 2950000 and 1930000 | DLS scattering intensity ([1]; uM] 1.49996): 46500000 and 37100000 and 47300000 | DLS scattering intensity ([1]; uM] 2): 1480000* and 177000000 and 144000000 | DLS scattering intensity ([1]; uM] -0.500011): 1270000 and 1420000 and 400669 | DLS scattering intensity ([1]; uM] -1): 2530000 and 1820000 and 2230000 | MDH inhibition (Malate dehydrogenase; uM 0): 0 | MDH inhibition (Malate dehydrogenase; uM 1): 0 | MDH inhibition (Malate dehydrogenase; uM 1.49996): 13.7 | MDH inhibition (Malate dehydrogenase; uM 2): 16.9 | MDH inhibition (Malate dehydrogenase; uM -0.500011): 0 | MDH inhibition (Malate dehydrogenase; uM -1): 0

COC(=O)C(NC(=O)c1cc(C)n(-c2cccc(C(F)(F)F)c2)n1)c1cccs1 (stereo not shown) [‘60154]
Emax (hCB1; HTLA, hCB1, read-out: Tango ß-arrestin recruitment Emax): 39% | response, replicate values of concentration-response curve (FigS7f) (hCB1; Log[drug], M = -4.52): 20.429 and 104.707 and 123.061 and 26.6803 and 2.239 and 9.553 and 21.4993 and 25.3085 and 22.5804 | response at Log[drug], M -4.52 (FigS4e) (hCB1; Log[drug], M = -4.52, individual replicates): 36.2928 and 40.0634 and 37.595 and 38.9593 and 35.7322 and 28.0596 and 40.2042 and 37.7287 and 36.7316 and 48.023 and 52.3904 and 37.2251 | response, replicate values of concentration-response curve (FigS7f) (hCB1; Log[drug], M = -5): 29.3399 and 77.9872 and 24.9124 and 21.905 and 24.6119 and -7.914 and 14.0694 and 22.9469 and 35.7257 and 39.8379 and 27.6728 and 20.59 | response at Log[drug], M -5 (FigS4e) (hCB1; Log[drug], M = -5, individual replicates): 27.1965 and 33.9994 and 36.3175 and 44.6129 and 35.5189 and 28.3176 and 42.1758 and 38.9685 and 43.9354 and 46.1208 and 46.0399 and 37.7973 | response, replicate values of concentration-response curve (FigS7f) (hCB1; Log[drug], M = -5.52): 24.9035 and 48.7158 and 91.1283 and -6.947 and -26.9779 and -11.1207 and 46.9121 and 22.8407 and -5.557 and 12.4866 and 10.6983 and 18.3267 | response at Log[drug], M -5.52 (FigS4e) (hCB1; Log[drug], M = -5.52, individual replicates): 25.9735 and 23.5078 and 35.2885 and 29.1149 and 28.5437 and 33.06 and 31.1872 and 38.5344 and 34.9915 and 38.6816 and 30.9446 and 24.7853 | response, replicate values of concentration-response curve (FigS7f) (hCB1; Log[drug], M = -6): 35.6397 and 64.0988 and 28.3754 and -0.07579 and -2.1717 and -13.0474 and 37.7825 and -1.0184 and -20.7108 and 24.6113 and 35.271 and 22.6916 | response at Log[drug], M -6 (FigS4e) (hCB1; Log[drug], M = -6, individual replicates): 18.7026 and 18.3517 and 20.9876 and 21.9355 and 21.9032 and 30.9802 and 39.6213 and 23.6016 and 27.6778 and 23.7782 and 27.0192 and 15.1437 | response, replicate values of concentration-response curve (FigS7f) (hCB1; Log[drug], M = -6.52): 40.4184 and 15.2889 and -15.0213 and 0.4345 and 12.418 and 31.9131 and 56.5195 and 30.6699 and -7.454 and 15.9018 and 24.7629 and -25.11 | response at Log[drug], M -6.52 (FigS4e) (hCB1; Log[drug], M = -6.52, individual replicates): 2.7065 and 1.809 and 4.4042 and 2.4679 and 5.955 and 7.47 and 7.413 and 8.766 and 8.7 and 7.813 and 3.502 and 4.219 | response, replicate values of concentration-response curve (FigS7f) (hCB1; Log[drug], M = -7): 42.117 and 22.4701 and 33.4423 and -35.9633 and 6.562 and -3.7308 and 26.543 and 5.232 and -0.3284 and 16.0836 and -9.206 and -14.6626 | response at Log[drug], M -7 (FigS4e) (hCB1; Log[drug], M = -7, individual replicates): -0.1594 and 1.156 and 1.734 and 0.4738 and 1.35 and 4.375 and 5.525 and -1.39 and -1.9125 and 2.9502 and 2.623 and 0.09812 | response, replicate values of concentration-response curve (FigS7f) (hCB1; Log[drug], M = -7.52): 9.097 and 42.2455 and 14.1224 and 6.121 and -38.1578 and 8.235 and 7.554 and -8.104 and 19.7008 and -1.133 and -13.7734 | response at Log[drug], M -7.52 (FigS4e) (hCB1; Log[drug], M = -7.52, individual replicates): -0.8122 and -1.1619 and -0.1273 and 2.722 and 1.436 and 3.312 and 3.337 and -1.53 and 0.254 and -0.2279 and 0.3901 and 2.167 | response at Log[drug], M -8 (FigS4e) (hCB1; Log[drug], M = -8, individual replicates): -0.5798 and -1.11 and -0.9423 and 0.6357 and 0.4201 and 2.003 and 3.003 and -1.545 and 0.894 and 0.1363 and 0.04065 and -0.5839 | response at Log[drug], M -8.52 (FigS4e) (hCB1; Log[drug], M = -8.52, individual replicates): -0.1435 and -1.173 and 0.8807 and -1.256 and 3.396 and 0.2695 and 3.693 and -1.556 and 1.54 and 0.762 and 0.3566 and -1.166 | response at Log[drug], M -9 (FigS4e) (hCB1; Log[drug], M = -9, individual replicates): -0.3789 and 0.9257 and 0.4985 and -1.1206 and 0.6246 and 1.649 and 1.459 and 1.082 and -0.1538 and 1.773 and 1.969 and 1.368 | response, replicate values of concentration-response curve (FigS7f) (hCB1; Log[drug], M = -9.52): 41.217 and -5.872 and -26.7955 and -2.208 and 11.6321 and -16.1909 and 10.2609 and 13.9367 and -21.8387 and 26.5917 | response at Log[drug], M -9.52 (FigS4e) (hCB1; Log[drug], M = -9.52, individual replicates): -0.6308 and 0.506 and 1.398 and 0.3411 and 1.417 and 1.054 and 1.983 and 0.4806 and -1.1508 and 1.754 and 1.621 and -0.4835 | response, replicate values of concentration-response curve (FigS7f) (hCB1; Log[drug], M = -10): 24.3711 and 8.545 and -42.2513 and 15.4728 and -21.9203 and 6.572 and 26.8747 and -5.278 and 28.0467 and 13.9517 | response at Log[drug], M -10 (FigS4e) (hCB1; Log[drug], M = -10, individual replicates): -0.3624 and -0.5584 and 1.6 and 1.1356 and 0.03407 and 2.157 and 0.3066 and -2.677 and -0.1348 and -0.07275 and 2.928 and 0.8882 | response at Log[drug], M -10.52 (FigS4e) (hCB1; Log[drug], M = -10.52, individual replicates): -0.1972 and -0.5734 and -0.1162 and -0.5884 and 2.053 and 3.553 and 2.404 and 0.5855 and 0.2182 and 0.2755 and 0.7811 and -2.185 | response at Log[drug], M -11 (FigS4e) (hCB1; Log[drug], M = -11, individual replicates): -0.4863 and -0.2436 and -0.1687 and -1.788 and -0.3582 and 1.843 and 0.2942 and 1.859 and 1.201 and 2.6701 and -0.898 and 1.465 | response at Log[drug], M -11.52 (FigS4e) (hCB1; Log[drug], M = -11.52, individual replicates): -1.461 and -1.915 and -0.401 and -1.735 and -0.6638 and -0.2757 and -0.3004 and 0.6619 and 0.7048 and -0.5021 and 3.748 and -0.3785 | response at Log[drug], M -12 (FigS4e) (hCB1; Log[drug], M = -12, individual replicates): 0.3314 and 0.2511 and -0.1836 and 1.061 and -0.3335 and 0.1951 and -0.1931 and -0.7644 and -0.8837 and -0.1348 and 1.783 and -1.1281 | Tango ß-arrestin recruitment pEC50 (hCB1; hCB1): 6.1 [6.0 – 6.1] | EC50 (hCB1; hCB1, read-out: Tango ß-arrestin recruitment EC50): 819 nM | BRET2 + GoA pEC50 (hCB2 [2]): 6.2 [5.6 – 6.9] | EC50 (hCB2 [2]): 594 nM | Emax (hCB2 [2]; HEK-293T): 31% | functional response, concentration-response point (FigS7e, normalized) (hCB2 [2]; M = -4.52): 18.671 and 20.9182 and 18.0789 and 16.7004 | functional response, concentration-response point (FigS7e, normalized) (hCB2 [2]; M = -5): 15.3625 and 13.9237 and 14.7132 and 15.4107 and 19.4252 and 16.9876 and 18.2783 and 12.2533 and 11.9429 and 13.7725 and 13.3839 and 13.0025 | functional response, concentration-response point (FigS7e, normalized) (hCB2 [2]; M = -5.52): 9.963 and 10.999 and 10.5318 and 12.5419 and 11.8092 and 12.1824 and 9.605 and 7.598 and 8.713 and 9.44 and 10.8654 and 8.808 | functional response, concentration-response point (FigS7e, normalized) (hCB2 [2]; M = -6): 5.593 and 3.808 and 3.775 and 3.462 and 6.67 and 5.511 and 6.374 and 4.542 and 6.846 and 4.398 and 2.755 and 4.192 | functional response, concentration-response point (FigS7e, normalized) (hCB2 [2]; M = -6.52): 2.409 and 1.324 and 2.492 and 1.478 and 2.2654 and 2.677 and 2.607 and 2.647 and 2.733 and 1.4886 and 1.807 and 1.367 | functional response, concentration-response point (FigS7e, normalized) (hCB2 [2]; M = -7): 1.643 and 1.038 and 0.587 and 0.6659 and 0.7726 and 0.2984 and 0.761 and 0.6332 and 1.544 and 0.7947 and 0.4011 and 0.3139 | functional response, concentration-response point (FigS7e, normalized) (hCB2 [2]; M = -7.52): 0.7104 and 0.5146 and 0.05736 and 0.5245 and 1.192 and 0.7027 and 0.8893 and 0.666 and 0.5954 and 0.6963 and -0.03292 and 0.3929 | functional response, concentration-response point (FigS7e, normalized) (hCB2 [2]; M = -8): 0.3645 and 0.5311 and 0.5376 and 0.156 and -0.2264 and 0.2284 and 0.4344 and -0.3685 and 0.1487 and 0.4213 and 0.2144 and 0.1495 | functional response, concentration-response point (FigS7e, normalized) (hCB2 [2]; M = -8.52): 0.07184 and -0.1728 and 0.5013 and 0.625 and -0.3869 and 0.7675 and 0.7171 and -0.3804 and 0.4049 and 0.07444 and 0.02209 and 0.4671 | Emax (hCB2 [3]; HTLA, read-out: Tango ß-arrestin recruitment Emax): 21% | Tango ß-arrestin recruitment pEC50 (hCB2 [3]): 5.5 [5.4 – 5.6] | EC50 (hCB2 [3]; read-out: Tango ß-arrestin recruitment EC50): 3340 nM
